# Assays:
# Assay type in all cases: in vivo
# [1] = tested on: Sagittaria trifolia; assay: Greenhouse transplant rice test, ST; settings: Sagittaria trifolia, about 3 WAT, read-out: Percent Inhibition, ST
# Description: (§1) The test procedure used in this greenhouse test is as follows: Ray silt loam top soil containing about 0.05% by weight of krillium and sifted through a […] screen is fumigated about 5-10 days prior to use. Pots are then filled with said Ray silt loam soil to a level to allow for a 1 in. (2.54 cm) flooding depth. Rice plants (Bluebelle) of 2 to 3 weeks age are transplanted to the pots and bulbs or seeds of the test weeds also planted in the pots. The pots are then flooded and the test chemical applied to the surface of the flood water. The flood water is reduced to allow for germination of the Echinochloa crus-galli (barnyardgrass) seed and subsequently reflooded and maintained in that condition. Observations of percent inhibition using a scale of 0-100% are made about 3 weeks after transplant (WAT).
# (§2) The test data in Table III for all compounds was obtained under identical test conditions. The weeds used in the tests herein have the following abbreviations in the tables: Echinochloa crus-galli (EC), Monochloria vaginalis (MV), Cyperus Serotinus (CS), Eleocharis Kuroguwai (EK) and Sagittaria trifolia (ST).
# [2] = tested on: Monochoria vaginalis; assay: Greenhouse transplant rice test, MV; settings: Pontederia vaginalis, about 3 WAT, read-out: Percent Inhibition, MV
# Description: as §1, §2
# [3] = tested on: Upland seeded rice; assay: Upland seeded rice greenhouse test, rice safety; settings: in vivo
# Experimental: In another comparative test in the greenhouse, the compound of Example 2 and Compound B were tested in Upland seeded rice. […] In contrast, Compound A, (a commercial rice herbicide), required 0.14 kg/ha (0.125 lb/A) to selectively control the same weed with rice safety also maintained at 1.12 kg/ha resulting in a selectivity factor of at least 8, i.e., less than one-half that of the compound of Example 2.
# [4] = tested on: Quackgrass; assay: Pre-emergent herbicidal test, Quackgrass; settings: Table I; also: ranges in brackets are in %
# Description: (§3) A good grade of top soil is placed in aluminum pans and compacted to a depth of three-eights to one-half inch from the top of the pan. On the top of the soil is placed a number of seeds or vegetative propagules of various plant species. The soil required to level fill the pans after seeding or adding vegetative propagules is weighted into a pan. The soil and a known amount of the active ingredient applied in a solvent or as a wettable powder suspension are thoroughly mixed, and used to cover the prepared pans. After treatment, the pans are moved into a greenhouse bench where they are watered by subirrigation as needed to give adequate moisture for germination and growth.
# (§4) Approximately 2 weeks after seeding and treating, the plants were observed and the results recorded. The herbicidal rating was obtained by means of a fixed scale based on the percent injury of each plant species. The ratings are defined as follows: […]
# [5] = tested on: Morningglory; assay: Pre-emergent herbicidal test, Morningglory; also: ranges in brackets are in %
# Description: as §3, §4
# [6] = tested on: Yellow Nutsedge; assay: Pre-emergent herbicidal test, Yellow Nutsedge; settings: Table I; also: ranges in brackets are in %
# Description: as §3, §4
# [7] = tested on: Sugarbeet; assay: Pre-emergent herbicidal test, Sugarbeet; settings: Table II; also: ranges in brackets are in %
# Description: as §3, §4
# (§5) The compounds were further tested by utilizing the above procedure on the following plant species: […]
# [8] = tested on: Johnsongrass; assay: Pre-emergent herbicidal test, Johnsongrass; settings: Table I; also: ranges in brackets are in %
# Description: as §3, §4
# [9] = tested on: Soybean; assay: Pre-emergent herbicidal test, Soybean; settings: Table II; also: ranges in brackets are in %
# Description: as §3, §4, §5
smiles,measurement,setting,value
"CCCCOc1cccc(CC)c1N(CC)C(=O)CCl [Example 2, N-ethyl-2'-n-butoxy-6'-ethyl-2-chloroacetanilide]",inhibition at 280 g/ha,[1]; 0.28 Kg/Ha,30%
same,inhibition at 560 g/ha,[1]; 0.56 Kg/Ha,25%
same,inhibition at 1120 g/ha,[1]; 1.12 Kg/Ha,70%
same,inhibition at 2240 g/ha,[1]; 2.24 Kg/Ha,55%
same,inhibition at 280 g/ha,[2]; 0.28 Kg/Ha,100%
same,inhibition at 560 g/ha,[2]; 0.56 Kg/Ha,100%
same,inhibition at 1120 g/ha,[2]; 1.12 Kg/Ha,100%
same,inhibition at 2240 g/ha,[2]; 2.24 Kg/Ha,100%
same,rate at which rice safety is maintained,[3],≥ 1.12 kg/ha
same,"Rating, Quackgrass",[4]; 5.6 kg/h,3 (75-100)
same,"Rating, Quackgrass",[4]; 11.2 kg/h,3 (75-100)
same,"Rating, Morningglory","[5]; Table I, 5.6 kg/h",0 (0-24)
same,"Rating, Morningglory","[5]; Table I, 11.2 kg/h",2 (50-74)
same,"Rating, Morningglory","[5]; Table II, 0.01 kg/h",0 (0-24)
same,"Rating, Morningglory","[5]; Table II, 0.06 kg/h",0 (0-24)
same,"Rating, Morningglory","[5]; Table II, 0.28 kg/h",0 (0-24)
same,"Rating, Morningglory","[5]; Table II, 1.12 kg/h",0 (0-24)
same,"Rating, Morningglory","[5]; Table II, 5.6 kg/h",1 (25-49)
same,"Rating, Yellow Nutsedge",[6]; 5.6 kg/h,3 (75-100)
same,"Rating, Yellow Nutsedge",[6]; 11.2 kg/h,3 (75-100)
same,"Rating, Sugarbeet",[7]; 0.01 kg/h,0 (0-24)
same,"Rating, Sugarbeet",[7]; 0.06 kg/h,0 (0-24)
same,"Rating, Sugarbeet",[7]; 0.28 kg/h,1 (25-49)
same,"Rating, Sugarbeet",[7]; 1.12 kg/h,2 (50-74)
same,"Rating, Sugarbeet",[7]; 5.6 kg/h,2 (50-74)
same,"Rating, Johnsongrass",[8]; 5.6 kg/h,2 (50-74)
same,"Rating, Johnsongrass",[8]; 11.2 kg/h,3 (75-100)
same,"Rating, Soybean",[9]; 0.01 kg/h,0 (0-24)
same,"Rating, Soybean",[9]; 0.06 kg/h,0 (0-24)
same,"Rating, Soybean",[9]; 0.28 kg/h,0 (0-24)
same,"Rating, Soybean",[9]; 1.12 kg/h,0 (0-24)
same,"Rating, Soybean",[9]; 5.6 kg/h,1 (25-49)

# — patent publication US4345938A, “Herbicidal 2-haloacetanilides” (Monsanto Company, priority 1980, dated 1982)
